Test results as given in patent US11040041B2, “Method of treating pulmonary arterial hypertension” (Cipla (UK) Limited, priority 2015, dated 2021).

Legend:
[1] = tested on: rats with monocrotaline induced pulmonary arterial hypertension; assay: Hemodynamic evaluation in anesthetized rats treated with monocrotaline to induce pulmonary arterial hypertension; format: in vivo, Sprague-Dawley rats; details: for RV/LV + S: Fulton's Index; for RV/LV + S / Body Weight / HR / HW/BW / Heart Wt / LV Wt / Lung Wt / MAP / Mean PAP / RV Wt / RV/BW / Systolic PAP: day 28 after monocrotaline, mean ± SEM
Description: The studies were conducted for Hemodynamic Evaluation of Paliperidone palmitate in Anesthetized Sprague Dawley Rats Treated with Monocrotaline to Induce Pulmonary Arterial Hypertension. Sildenafil was used as an internal control to compare the effects of Paliperidone palmitate.
Adult male Sprague-Dawley rats (287±4 g) were obtained from Charles River Laboratories (Raleigh, N.C.). Animals housed individually in a temperature/humidity controlled room with 12-hour light/dark cycles, had free access to water and food and were acclimated for one week prior to the study. Rats were randomly assigned (n=10 per group). Rats in groups 1 and 2 served as healthy controls; the remaining rats were injected subcutaneously on Day 0 with 60 mg/kg body weight monocrotaline, the toxic alkaloid of Crotalaria spectabilis, (dissolved in DMSO at a concentration of 60 mg/ml, Sigma Aldrich, St. Louis, Mo.). On days 1-21, the rats were dosed via oral gavage (2 ml/kg) with vehicle (PBS), or the test compound—Paliperidone palmitate. Rats were weighed daily, and the dosages of test compound adjusted appropriately.
Monocrotaline (MCT) is an 11-membered macrocyclic pyrrolizidine plant alkaloid. A single SQ injection into rats results in hepatic generation of toxic metabolite—MCT pyrrole. Phase II metabolism of MCT is through glutathione conjugation. Reactive metabolite is transported to lungs, injuring pulmonary vasculature.
The effects of sildenafil and Paliperidone palmitate were evaluated in rats with monocrotaline induced pulmonary arterial hypertension. Male Sprague-Dawley rats were orally administered vehicle, Paliperidone palmitate (1.25 or 3.75 mg/kg, once every day for 28 days starting on Day 1, or sildenafil (30 mg/kg, administered twice daily) (n=10 in each group). Rats received a single injection of monocrotaline (60 mg/kg, s.c.) on Study Day 1. On the twenty-eighth day following monocrotaline dosing, the rats were anesthetized with ketamine/xylazine for terminal monitoring of pulmonary and systemic arterial pressures along with heart rate.
The Table 1 gives the study design for the test article and vehicle administrations.

[2] = tested on: rats with monocrotaline induced pulmonary arterial hypertension; assay: as above; format: in vivo, Sprague-Dawley rats; details: 3.25 mg/kg dosing (so in the source), after 28 days
[3] = Sildenafil 60 mg/kg/day bid oral
[4] = after 28 days, monocrotaline rats
[5] = Paliperidone palmitate 1.25 mg/kg oral once daily
[6] = Paliperidone palmitate 3.75 mg/kg oral once daily

CCCc1nn(C)c2c(=O)[nH]c(-c3cc(S(=O)(=O)N4CCN(C)CC4)ccc3OCC)nc12 [Sildenafil]
RV/LV + S [1, 3]: 0.51 ± 0.03 | Body Weight [1, 3]: 0.32 ± 0.01 kg | HR [1, 3]: 278 ± 21 bpm | HW/BW [1, 3]: 3.89 ± 0.17 | Heart Wt [1, 3]: 1.24 ± 0.02 g | LV Wt [1, 3]: 0.74 ± 0.02 g | Lung Wt [1, 3]: 2.36 ± 0.13 g | MAP [1, 3]: 69 ± 5 mm Hg | Mean PAP [1, 3]: 38 ± 6 mm Hg | RV Wt [1, 3]: 0.38 ± 0.02 g | RV/BW [1, 3]: 1.19 ± 0.09 | Systolic PAP [1, 3]: 46 ± 7 mm Hg | differences in heart rate compared to vehicle [1, 4]: No substantive differences | differences in mean arterial pressure compared to vehicle [1, 4]: No substantive differences | decrease in hypertrophy, RV (wt) corrected by body weight ([1]; sildenafil (30 mg/kg twice daily), after 28 days, monocrotaline rats): 21% | right ventricular hypertrophy (RV/LV+S, Fulton's Index) change compared to vehicle ([1]; sildenafil cohort (30 mg/kg twice daily), after 28 days, monocrotaline rats): −14% | reduction of SPAP compared to the vehicle group ([1]; sildenafil group (30 mg/kg twice daily), after 28 days, monocrotaline rats): 23%

CCCCCCCCCCCCCCCC(=O)OC1CCCn2c1nc(C)c(CCN1CCC(c3noc4cc(F)ccc34)CC1)c2=O (stereo not shown) [Paliperidone palmitate, Hexadecanoic acid 3-[2-[4-(6-fluoro-1,2-benzisoxazol-3-yl)piperidin-1-yl]ethyl]-2-methyl-4-oxo-6,7,8,9-tetrahydro-4H-pyri do[1,2-a]pyrimidin-9-yl ester]
reduction in systolic pulmonary arterial pressure compared to the vehicle group [2]: 20% | reduction in systolic pulmonary arterial pressure compared to the vehicle group ([1]; 1.25 mg/kg dosing, after 28 days, monocrotaline rats): 25% | right ventricular hypertrophy (RV/LV+S, Fulton's Index) change compared to vehicle ([1]; 1.25 mg/kg, after 28 days, monocrotaline rats): −12% | right ventricular hypertrophy (RV/LV+S, Fulton's Index) change compared to vehicle ([1]; 3.75 mg/kg, after 28 days, monocrotaline rats): −7% | RV/LV + S [1, 5]: 0.52 ± 0.04 | RV/LV + S [1, 6]: 0.55 ± 0.06 | Body Weight [1, 5]: 0.33 ± 0.02 kg | HR [1, 5]: 253 ± 36 bpm | HW/BW [1, 5]: 3.94 ± 0.22 | Heart Wt [1, 5]: 1.28 ± 0.03 g | LV Wt [1, 5]: 0.77 ± 0.01 g | Lung Wt [1, 5]: 2.59 ± 0.13 g | MAP [1, 5]: 54 ± 9 mm Hg | Mean PAP [1, 5]: 34 ± 1 mm Hg | RV Wt [1, 5]: 0.39 ± 0.02 g | RV/BW [1, 5]: 1.22 ± 0.10 | Systolic PAP [1, 5]: 45 ± 3 mm Hg | Body Weight [1, 6]: 0.33 ± 0.02 kg | HR [1, 6]: 312 ± 12 bpm | HW/BW [1, 6]: 3.92 ± 0.21 | Heart Wt [1, 6]: 1.28 ± 0.06 g | LV Wt [1, 6]: 0.73 ± 0.03 g | Lung Wt [1, 6]: 2.23 ± 0.04 g | MAP [1, 6]: 68 ± 5 mm Hg | Mean PAP [1, 6]: 39 ± 3 mm Hg | RV Wt [1, 6]: 0.40 ± 0.03 g | RV/BW [1, 6]: 1.22 ± 0.12 | Systolic PAP [1, 6]: 48 ± 3 mm Hg | differences in heart rate compared to vehicle [1, 4]: No substantive differences | differences in mean arterial pressure compared to vehicle [1, 4]: No substantive differences | decrease in hypertrophy, RV (wt) corrected by body weight ([1]; at either dose (1.25 or 3.75 mg/kg), after 28 days, monocrotaline rats): 19% | development of PAH in the rat monocrotaline (MCT) model ([1]; daily oral doses, text says three weeks): prevent the development of PAH
